This note sets out measurements from patent US6127136A, “Detection of dioxin-like compounds by detection of transformed Ah receptor/ARNT complex” (Paracelsian, Inc., priority 1996, dated 2000).

Assay [1] deals with T1, transformed Ah receptor/ARNT complex (Cavia porcellus, UniProt Q6J287). In words: mini-Ah immunoassay with anti-ARNT detection of transformed Ah receptor/ARNT complex. The following applies: for density, average / density: TCDD (+); for density: single replicate. Details: AHR/ARNT heterodimer on DRE gel, anti-ARNT detection; in some samples recombinant baculovirus ARNT (Bradfield) added. Format: biochemical, guinea pig (male Hartley, hepatic cytosol). As for the experimental part:
Male Hartley guinea pigs weighing 300-350 g were obtained from Cornell Research Animal Resources, Cornell University, Ithaca, N.Y. Guinea pigs were anaesthetized and killed with carbon dioxide. Livers were perfused in situ with 100 mL ice-cold perfusion buffer, excised, trimmed of connective tissue, poorly perfused liver and gall bladder and weighed. The liver was minced and five mL of ice-cold HEDG per gram liver were added and the whole homogenized in a 50 mL homogenizer with teflon pestle using at 200 rpm for a total of seven strokes. Crude homogenate was centrifuged at 12,500 RPM in 50 mL tubes in a JA17 rotor in a Beckman J2-MI preparative centifuge at 4 degrees C for 20 minutes.
For a typical mini-Ah immunoassay utilizing 12 samples, 5 mL of Transformed Ah Receptor Affinity Gel slurry described above was pipeted into a 50 mL conical tube. The slurry was washed with 40 mL HEDG and centifuged at 1000 g for 5 min, the supernatant withdrawn and discarded, the pellet washed with 40 mL HEDG, and centrifuged again. After the second centrifugation all but 5 mL of supernatant was withdrawn and the gel thus resuspended in the original volume. 10 mL guinea pig hepatic cytosol was thawed. The thawed cytosol was pooled and then divided into two 5 mL groups and treated with either 5 uL DMSO or 5 uL 10 uM TCDD in DMSO.
Assembly of transformation mixture:In the preferred embodiment of the mini-Ah immunoassay, each sample was composed of one 1.5 mL microfuge tube with the following sequential additions: 90 uL 4 M NaCl/HEDG, 400 uL Transformed Ah Receptor Affinity Gel slurry and 800 uL cytosol (treated with DMSO or TCDD as described above). The three components described above are the minimum components added at that step of the mini-Ah immunoassay. Any additional materials, such as ARNT, anti-ARNT and anti-Rabbit/alkaline phosphatase conjugate, were sometimes also added at this time as described in the specific examples. After assembly of the samples, the tubes were capped and the samples incubated at room temperature for 2 hours with gentle rocking to allow transformation of the Ah receptor to take place, interaction of transformed Ah receptor and ARNT, and binding of the transformed Ah receptor as a heteromer to the DRE oligonucleotide contained on the Transformed Ah Receptor Affinity Gel.
Immunoprobing of transformed Ah receptor: The nitrocellulose membrane was then removed from the ELIFA apparatus, rinsed briefly with water, and placed in 20 mL blocker containing test antibody. All antibodies were incubated with the nitrocellulose membrane for one hour at room temperature. When the test antibody was anti-Ah receptor/alkaine phosphatase conjugate, 100 uL anti-Ah receptor/alkaline phosphatase conjugate (1:200), per 20 mL blocker was used. When anti-ARNT was added to the transformation mixture, anti-Rabbit/alkaline phosphatase conjugate (Sigma, St. Louis, Mo.) diluted 1:1000 (20 uL to 20 mL blocker) was used to probe the membrane. When ARNT, anti-ARNT and anti-Rabbit or anti-ARNT and anti-Rabbit was added to the transformation mixture, the Immunoprobing step was eliminated.
Immunodetection and densitometry: In all cases the nitrocellulose membrane was rinsed prior to immunodetection 3 times for 5 min each with 100 mL TBST, briefly washed in AP development buffer and developed in freshly made BCIP/NBT developer for 5 min, whereupon the color reaction was stopped by washing the membrane in water.
Quantitative data were obtained by scanning the dried membrane in a Microtek 600ZS scanner in gray scale, 300 dpi, 0% brightness, 0% contrast. Densitometric measurements of the dot-blots were made using ScanAnalysis software (Biosoft, Cambridge U.K.).
Cytosol and DRE affinity gel are prepared as described above. Cytosol is dosed with 1:1000 v/v DMSO (-) or 1:1000 v/v 10 uM 2,3,7,8-tetrachlorodibenzo-p-dioxin in DMSO (+).
Immunoprobing of transformed Ah receptor is as described above with the following probes. […]
Target sequence in this assay (Q6J287 10-846): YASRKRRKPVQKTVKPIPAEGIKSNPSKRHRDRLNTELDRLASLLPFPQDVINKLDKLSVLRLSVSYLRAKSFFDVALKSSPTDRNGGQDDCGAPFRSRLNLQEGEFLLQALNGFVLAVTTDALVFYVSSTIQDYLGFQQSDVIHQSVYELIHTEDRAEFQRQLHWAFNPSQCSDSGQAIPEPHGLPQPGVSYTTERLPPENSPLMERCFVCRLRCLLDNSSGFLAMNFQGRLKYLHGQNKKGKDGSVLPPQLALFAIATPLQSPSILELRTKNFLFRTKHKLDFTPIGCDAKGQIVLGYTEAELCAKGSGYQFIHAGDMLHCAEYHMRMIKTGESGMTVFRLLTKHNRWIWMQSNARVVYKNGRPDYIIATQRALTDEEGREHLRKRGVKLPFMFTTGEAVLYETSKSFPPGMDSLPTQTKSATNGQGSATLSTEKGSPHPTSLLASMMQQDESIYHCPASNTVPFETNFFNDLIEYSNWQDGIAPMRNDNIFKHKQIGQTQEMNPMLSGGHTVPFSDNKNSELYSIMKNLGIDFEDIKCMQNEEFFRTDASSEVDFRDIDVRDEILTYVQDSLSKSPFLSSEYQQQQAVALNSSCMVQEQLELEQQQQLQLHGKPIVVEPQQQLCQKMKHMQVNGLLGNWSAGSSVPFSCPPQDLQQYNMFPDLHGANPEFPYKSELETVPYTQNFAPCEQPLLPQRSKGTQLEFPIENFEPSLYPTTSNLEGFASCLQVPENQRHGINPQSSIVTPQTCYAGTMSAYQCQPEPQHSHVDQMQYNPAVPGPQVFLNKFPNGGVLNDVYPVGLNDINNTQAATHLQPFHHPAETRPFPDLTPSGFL
Target sequence in this assay (Q0WXX3 1-790 partner): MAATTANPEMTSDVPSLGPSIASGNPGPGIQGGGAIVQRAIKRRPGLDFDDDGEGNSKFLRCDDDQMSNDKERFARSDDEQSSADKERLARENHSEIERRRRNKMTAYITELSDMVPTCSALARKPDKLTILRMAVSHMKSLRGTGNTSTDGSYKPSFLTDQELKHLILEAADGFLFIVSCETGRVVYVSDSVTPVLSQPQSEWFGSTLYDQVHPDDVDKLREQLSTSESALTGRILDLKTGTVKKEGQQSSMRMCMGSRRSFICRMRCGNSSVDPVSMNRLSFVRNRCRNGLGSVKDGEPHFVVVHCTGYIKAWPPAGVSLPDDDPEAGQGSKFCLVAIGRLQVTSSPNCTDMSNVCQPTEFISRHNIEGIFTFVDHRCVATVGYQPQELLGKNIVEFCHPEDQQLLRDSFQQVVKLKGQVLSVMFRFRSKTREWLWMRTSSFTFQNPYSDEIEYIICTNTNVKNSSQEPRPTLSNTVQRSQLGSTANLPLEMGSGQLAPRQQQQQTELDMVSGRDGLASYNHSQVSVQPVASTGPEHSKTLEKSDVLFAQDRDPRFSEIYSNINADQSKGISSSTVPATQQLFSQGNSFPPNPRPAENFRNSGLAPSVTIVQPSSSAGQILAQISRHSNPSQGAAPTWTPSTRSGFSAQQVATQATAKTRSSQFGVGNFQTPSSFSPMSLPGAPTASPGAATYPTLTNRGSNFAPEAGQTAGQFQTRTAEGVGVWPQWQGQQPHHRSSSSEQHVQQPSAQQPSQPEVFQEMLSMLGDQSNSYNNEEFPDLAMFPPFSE
Target sequence in this assay (P27540 whole entry partner, the tested form may be a part): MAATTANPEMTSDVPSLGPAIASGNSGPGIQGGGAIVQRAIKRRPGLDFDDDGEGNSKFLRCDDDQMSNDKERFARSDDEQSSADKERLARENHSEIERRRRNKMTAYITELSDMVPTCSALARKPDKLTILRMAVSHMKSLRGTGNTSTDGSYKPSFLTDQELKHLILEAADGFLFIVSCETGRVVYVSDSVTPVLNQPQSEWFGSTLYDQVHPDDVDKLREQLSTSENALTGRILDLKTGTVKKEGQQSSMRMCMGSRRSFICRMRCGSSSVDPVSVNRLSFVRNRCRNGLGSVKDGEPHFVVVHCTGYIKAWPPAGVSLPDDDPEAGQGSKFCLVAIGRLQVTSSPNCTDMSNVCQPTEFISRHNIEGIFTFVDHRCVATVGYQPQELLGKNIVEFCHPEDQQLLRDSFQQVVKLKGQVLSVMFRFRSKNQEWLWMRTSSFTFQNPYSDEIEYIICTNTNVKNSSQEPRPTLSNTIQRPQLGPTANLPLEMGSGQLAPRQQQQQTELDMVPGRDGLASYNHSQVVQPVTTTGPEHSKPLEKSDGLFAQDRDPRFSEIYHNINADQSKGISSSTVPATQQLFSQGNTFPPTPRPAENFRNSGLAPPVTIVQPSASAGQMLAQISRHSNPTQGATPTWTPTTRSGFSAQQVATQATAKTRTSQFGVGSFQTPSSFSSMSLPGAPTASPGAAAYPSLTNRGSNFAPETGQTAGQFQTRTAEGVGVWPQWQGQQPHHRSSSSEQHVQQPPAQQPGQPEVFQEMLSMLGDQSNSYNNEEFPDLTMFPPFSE

The target in assay [2] is T1, transformed Ah receptor/ARNT complex. In words: Ah-ELISA dose response using PnPP detection. The format is biochemical, guinea pig (hepatic cytosol). More on the design: from tissue; host or cells: hepatic cytosol of male Hartley guinea pigs (animals from Cornell Research Animal Resources). The following applies: for Average Optical Density: 405 nm, PnPP 58 minutes. As for the experimental part: The reagents and ELISA plate were prepared as described in Example 9 with the standard PNPP detection technique. The TCDD concentration was varied tested at 0, 0.016, 0.031, 0.063, 0.125, 0.25, 0.5, and 1.0 nM. After washing the plates PnPP stock was added to each well (200 uL) and the plate was incubated for 1 hour (actually 58 minutes for data shown below), at which time it was read at 405 nm in an ELISA plate reader and milli O.D. recorded.
Target sequence in this assay (Q6J287 1-846): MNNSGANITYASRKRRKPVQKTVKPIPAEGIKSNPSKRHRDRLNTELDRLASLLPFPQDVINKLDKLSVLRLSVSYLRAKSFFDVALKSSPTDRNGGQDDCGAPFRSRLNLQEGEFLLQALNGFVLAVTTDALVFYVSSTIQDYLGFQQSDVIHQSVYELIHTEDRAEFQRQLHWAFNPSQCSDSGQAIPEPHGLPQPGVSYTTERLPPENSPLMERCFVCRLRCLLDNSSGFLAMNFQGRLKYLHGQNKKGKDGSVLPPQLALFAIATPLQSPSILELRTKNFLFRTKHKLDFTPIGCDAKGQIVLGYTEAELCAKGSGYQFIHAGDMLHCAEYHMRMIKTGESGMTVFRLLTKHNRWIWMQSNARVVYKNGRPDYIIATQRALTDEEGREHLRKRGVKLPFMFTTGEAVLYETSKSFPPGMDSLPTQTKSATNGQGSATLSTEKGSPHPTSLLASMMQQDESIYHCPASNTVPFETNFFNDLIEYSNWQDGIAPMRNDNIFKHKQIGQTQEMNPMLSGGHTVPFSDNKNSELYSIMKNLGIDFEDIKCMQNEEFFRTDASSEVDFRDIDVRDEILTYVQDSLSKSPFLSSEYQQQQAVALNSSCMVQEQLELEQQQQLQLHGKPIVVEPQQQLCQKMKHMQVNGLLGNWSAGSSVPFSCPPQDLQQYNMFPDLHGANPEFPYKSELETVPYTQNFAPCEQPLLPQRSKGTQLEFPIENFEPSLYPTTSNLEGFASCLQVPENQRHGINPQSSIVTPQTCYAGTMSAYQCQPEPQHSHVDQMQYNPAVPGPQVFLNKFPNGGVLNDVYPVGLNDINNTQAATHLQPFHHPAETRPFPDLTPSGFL
Target sequence in this assay (Q0WXX3 1-790 partner): as the sequence (Q0WXX3 1-790 partner) above
On the technique in general: ELISA stands for enzyme-linked immunosorbent assay.

Where [3] appears, read: Example 3, 220 ng anti-ARNT spike.
The mark [4] stands for this setting: Example 3, 660 ng anti-ARNT spike.
[5] abbreviates: Example 4, ARNT/anti-ARNT/anti-rabbit.
The mark [6] stands for this setting: Example 4, anti-ARNT/anti-rabbit, no ARNT added.
[7] abbreviates: Example 4, codes 1-4 (ARNT 2 ug, anti-ARNT 2 uL).

Usually EC50 stands for the concentration at which the effect is half-maximal.

Molecules are shown by their SMILES. Where “and” joins values, the source holds several entries; their conditions need not be identical. Identical values can stand only once.

On to `Clc1cc2c(cc1Cl)Oc1cc(Cl)c(Cl)cc1O2` [TCDD, 2,3,7,8-tetrachlorodibenzo-p-dioxin], for which the “density, difference TCDD treated (+) minus DMSO treated (-)” value in assay [1] (setting [3]) was found to be 185901; in assay [1] (setting [4]), 189840. Further, the “density, average” value was found to be 205498 in assay [1] (Example 3, 220 ng anti-ARNT spike, average of two replicates); 261285 in assay [1] (Example 3, 660 ng anti-ARNT spike, average of two replicates); 82695 in assay [1] (setting [5]); 36309 in assay [1] (Example 4, anti-ARNT/anti-rabbit, no ARNT added, second replicate lost); 244132 in assay [1] (setting [7]). The density was 191233 and 219762 in assay [1] (setting [3]); 231412 and 291157 in assay [1] (setting [4]); 85215 and 80175 in assay [1] (Example 4, ARNT/anti-ARNT/anti-rabbit in mixture); 36309 in assay [1] (setting [6]); 233321 and 254942 in assay [1] (Example 4, codes 1-4 (ARNT 2 ug, anti-ARNT 2 uL; printed Normal)). The “density, difference” value is given as 76074 in assay [1] (setting [5]), 33501 in assay [1] (setting [6]) and 235535 in assay [1] (setting [7]). Also, the “Average Optical Density” value in assay [2] (0.016 nM TCDD) is 0.3; in assay [2] (0.031 nM TCDD) it was 0.338; in assay [2] (0.063 nM TCDD) it was 0.4; in assay [2] (0.125 nM TCDD), 0.527; in assay [2] (0.25 nM TCDD), 0.804; in assay [2] (0.5 nM TCDD), 1.409. Further, in assay [2] (1 nM TCDD), the “Average Optical Density” value is on record as 2.155. In addition, the EC50 in assay [2] (PnPP detection, FIG. 6) was roughly 0.248 nM.
